In assay [1] the target is T1, α-glucosidase (EC3.2.1.20) (Saccharomyces cerevisiae, UniProt P07265).
T1 construct: purchased Sigma Aldrich
Nature of the assay: biochemical. The following applies: for inhibition at 500 µM: read-out: maximum α-glucosidase inhibitory activity (% inhibition); for IC50: α-glucosidase, mean ± SEM of three independent readings. As for the experimental part: The α-glucosidase (Saccharomyces cerevisiae) inhibitory assay was carried out with slight modifications according to the method described in [21, 26, 27]. For the evaluation of α-glucosidase inhibitory activity, 10 µl of freshly prepared phosphate buffer (pH 6.8) were plated in triplicate for a micro-well plate with the help of a micropipette. Then, 30 µL of α-glucosidase enzyme with a concentration of 0.017 units/mL of 70% ethanol and 10 µL of test compound solution were added to the same well plate. The plates were then incubated for 15 min at 37 °C and an initial reading was taken at 405 nm using the ELISA micro plate reader. Furthermore, 100 µl of 0.7mM PNPG substrate was added to each well of the plate and again incubated at 37 °C for 30 min, forming a yellow color. The final reading was taken again at λ max 405 nm using the ELISA plate reader. […] Each reading was taken in triplicate. The percent inhibition was calculated using the following formula, % inhibition = [(A negative control − A test sample)/A negative control] × 100, where A is absorbance.
The half-maximal inhibitory concentration values were determined using the Graphpad Prism version 7.0 software (San Diego, CA, USA. All values are represented as mean ± SEM.

For assay [2], the target named is T1, α-glucosidase (EC3.2.1.20). More on the design: method as in PMID 18341288. The conditions noted are these: cited from earlier work.

Several values for one entry are separate records, joined by “and”; a condition that tells them apart may be missing. Equal entries are not always repeated. Where two headings read alike, the source gives them in different places.

T1 sequence (P07265 whole entry): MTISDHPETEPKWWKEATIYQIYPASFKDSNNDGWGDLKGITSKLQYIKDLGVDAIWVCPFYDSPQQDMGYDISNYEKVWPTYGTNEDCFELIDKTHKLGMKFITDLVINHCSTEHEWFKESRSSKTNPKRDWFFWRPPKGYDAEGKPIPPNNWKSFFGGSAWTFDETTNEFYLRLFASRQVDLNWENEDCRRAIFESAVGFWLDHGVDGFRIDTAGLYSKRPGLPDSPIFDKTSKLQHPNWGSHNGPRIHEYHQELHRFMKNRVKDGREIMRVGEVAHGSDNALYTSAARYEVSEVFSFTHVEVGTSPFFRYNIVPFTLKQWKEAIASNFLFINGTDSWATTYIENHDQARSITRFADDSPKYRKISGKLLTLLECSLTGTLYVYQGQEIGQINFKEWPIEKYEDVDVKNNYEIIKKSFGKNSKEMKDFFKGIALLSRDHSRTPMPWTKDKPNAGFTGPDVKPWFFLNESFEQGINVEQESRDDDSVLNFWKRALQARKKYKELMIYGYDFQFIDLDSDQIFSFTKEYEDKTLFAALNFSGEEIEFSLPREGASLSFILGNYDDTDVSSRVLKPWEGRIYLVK

A word on the inhibition: it is the percentage by which the read-out fell short of the control. The IC50 is the concentration that inhibits the measured activity by half. Consider `CCC(CCC(C)C1CCC2C3CC=C4CC(OC5OC(CO)C(O)C(O)C5O)CCC4(C)C3CCC12C)C(C)C` [Compound 2, β-Sitosterol3-O-β-D-glucopyranoside], for which the inhibition at 500 µM in assay [1] came to 92%. Besides, the half-maximal inhibitory concentration (IC50) in assay [1] (read-out: IC50 ± SEM) was found to be 314 ± 4.58 µM.
Turning to `CC[C@H](CC[C@@H](C)[C@H]1CC[C@H]2[C@@H]3CC=C4C[C@@H](O)CC[C@]4(C)[C@H]3CC[C@]12C)C(C)C` [Compound 1, β-Sitosterol], in assay [1] (IC50 ± SEM), 143 ± 0.47 µM corresponded to half-maximal inhibition (IC50). Also, the inhibition at 500 µM in assay [1] was determined as 92.9%. Also, the “α-glucosidase inhibitory activity in previous studies” value in assay [2] was “inactive”.
For the compound `Cc1ccc(C2Oc3cc(O)cc(O)c3C(=O)C2O)cc1` (stereo not shown) [Compound 3, 3,5,7-trihydroxy-2-(p-tolyl) chorman-4-one], in assay [1] (IC50 ± SEM), the IC50 was 136 µM and 133 µM. In addition, the inhibition at 500 µM in assay [1] is 94%.

The values above are taken from paper PMC6384922, “Potent in Vitro α-Glucosidase Inhibition of Secondary Metabolites Derived from Dryopteris cycadina” (Molecules, 2019).
